Consider 15 compounds from patent US20100093613A1, “METHODS FOR IDENTIFYING AGENTS AND THEIR USE FOR THE PREVENTION OR STABILIZATION OF FIBROSIS” (priority 2007, published 2010).

Experiment [1] concerns Fibroblasts. The experiment in a line: BioMAP HDFT system (TGF-β), scoring of readout parameters. Also on record: key to PAI-1 score: 1 = modulated in desired direction, 0 = not (no penalties applied). To be noted: for PAI-1 score: HDFT, desired change decrease; for inhibit PAI-1 in the HDFT system: indication of TGF-b signaling inhibition without being cytotoxic. Type of experiment: cell-based, human. The text has this:
(§1) Each screened compound is scored according to its modulation of the selected readout parameters. Compounds receive a positive score (score of 1) or negative score (score of 0) for each readout parameter set forth in Table 2 that is modulated in the desired direction. […] Parameters may be penalized by making the positive score a −1 for parameters where regulation is opposite to the desired direction.
Compounds were first selected to inhibit PAI-1 in the HDFT as an indication of TBF-b signaling inhibition without being cytotoxic. […] Blank spots in Table 3 were where parameter was not assayed. Penalties were not applied for this scoring.
(§2) Cell culture. Human umbilical vein endothelial cells (HUVEC) were pooled from multiple donors, cultured according to standard methods, and plated into microtiter plates at passage 4. Cell culture medium for all systems containing HUVEC included hydrocortisone. Coronary artery smooth muscle cells (CASM3C) and umbilical artery smooth muscle cells (HSM3C) were cultured according to standard procedures. Peripheral blood mononuclear cells (PBMC) were prepared from buffy coats from normal human donors according to standard methods. Monocyte-derived macrophages were differentiated in the presence of M-CSF for 7 d according to standard procedures. Human dermal fibroblasts were pooled from 3 donors, cultured according to standard methods, and plated confluent 24 h before stimulation. Cell culture medium for all systems containing fibroblasts and keratinocytes contained low hydrocortisone. Epidermal keratinocytes and bronchial epithelial cells from 3 donors were cultured according to standard procedures and pooled when plated into microtiter plates. For keratinocyte-fibroblast co-cultures, cells were plated simultaneously 24 h before stimulation. For bronchial epithelial cell-fibroblast co-cultures, fibroblasts were plated and cultured 48 before addition of epithelial cells, then cultured another 24 hr before stimulation. Concentrations/amounts of agents added to confluent microtiter plates to build each system: cytokines (IL-1β, 1 ng/ml; TNF-α, 5 ng/ml; IFN-γ, 20 ng/ml; IL-4, 5 ng/ml), activators (SAg, 20 ng/ml; histamine, 10 μM; zymosan, 10 μg/ml; or LPS, 2 ng/ml), growth factors (TGF-β, 5 ng/ml; EGF, bFGF, and PDGF-BB, 10 ng/ml), and PBMC (7.5×10^4 cells/well) or macrophages (3.5×10^4 cells/well).
(§3) Compounds. Compounds were prepared in the solvent directed, added 1 hr before stimulation of the cells, and were present during the 24 hr stimulation period for the measurement of parameters listed in Table 2. For proliferation, compounds added 1 hr before stimulation of the cells with cytokines, and were present during the 48 to 72 hr assay. If prepared in DMSO, the final concentration of solvent was 0.1% or less.
(§4) Readout Parameter Measurements. The levels of readout parameters were measured by ELISA. Briefly, microtiter plates are treated, blocked, and then incubated with primary antibodies or isotype control antibodies (0.01-0.5 microg/ml) for 1 hr. After washing, plates were incubated with a peroxidase-conjugated anti-mouse IgG secondary antibody or a biotin-conjugated anti-mouse IgG antibody for 1 hr followed by streptavidin-HRP for 30 min. Plates were washed and developed with TMB substrate and the absorbance (OD) was read at 450 nm (subtracting the background absorbance at 650 nm). Quantitation of TNF-alpha or PGE2 in the LPS system was done using a commercially available kit according to the manufacturer's directions. Proliferation of endothelial cells (HUVEC and CAEC), smooth muscle cells (SMC and CASMC), and PBMC (T cells) was quantitated by Alamar Blue reduction or SRB.
Data analysis. Mean OD values for each parameter were calculated for compounds run in duplicate. The mean value (or single well OD value) for each parameter in a treated sample was then divided by the mean value from an appropriate control to generate a ratio.

For experiment [2], the system named is Fibroblasts. The experiment is described as follows: BioMAP HDF3CT system (IL-1β + TNF-α + IFN-γ + TGF-β), scoring of readout parameters. Type of experiment: cell-based, human.
Source text: as §1, §2, §3, §4
Data analysis. Mean OD values for each parameter were calculated for compounds run in duplicate. The mean value (or single well OD value) for each parameter in a treated sample was then divided by the mean value from an appropriate control to generate a ratio. All ratios were then log10 transformed. 95% significance prediction envelopes (grey shading in Figures) were calculated for historical controls.

On to `Cn1cnc([N+](=O)[O-])c1Sc1ncnc2nc[nH]c12` [Azathioprine], for which, in the experiment on Fibroblasts [1], the PAI-1 score turned out to be 0 and the “inhibit PAI-1 in the HDFT system” value is given as “none of these inhibit PAI-1”. The MMP-1 score in the experiment with Fibroblasts [2] turned out to be 0.

With `CCc1oc2ccccc2c1C(=O)c1cc(Br)c(O)c(Br)c1` [Benzbromarone], in the experiment on Fibroblasts [1], the PAI-1 score came to 1. In addition, in the experiment with Fibroblasts [2], the MMP-1 score is recorded as 0.

Compound `C=C1CC[C@H](O)C/C1=C/C=C1\CCC[C@]2(C)[C@@H]([C@H](C)/C=C/[C@H](C)C(C)C)CC[C@@H]12` [Calciferol] returned a PAI-1 score with Fibroblasts [1] of 1. Also, in the experiment on Fibroblasts [2], the MMP-1 score is 0.

For the compound `COc1cc2c(c(OC)c1OC)-c1ccc(OC)c(=O)cc1[C@@H](NC(C)=O)CC2` [Colchicine], in the experiment with Fibroblasts [1], the PAI-1 score is on record as 0 and the “inhibit PAI-1 in the HDFT system” value was “none of these inhibit PAI-1”. For the same compound, the MMP-1 score with Fibroblasts [2] came out at 0.

For the compound `O=C(O)c1ccccc1Nc1cccc(C(F)(F)F)c1` [Flufenamic Acid], the PAI-1 score in the experiment on Fibroblasts [1] is listed as 1. Further, in the experiment on Fibroblasts [2], the MMP-1 score came out at 1.

`Fc1ccc(C(OCCN2CCN(CCCc3ccccc3)CC2)c2ccc(F)cc2)cc1` [GBR 12909] registered a PAI-1 score in the experiment with Fibroblasts [1] of 1. In the experiment with Fibroblasts [2], the MMP-1 score was determined as 0.

`CCCCN(CCCC)CCC(O)c1cc2c(Cl)cc(Cl)cc2c2cc(C(F)(F)F)ccc12` (stereo not drawn) [Halofantrine] displayed a PAI-1 score in the experiment on Fibroblasts [1] of 1. For the same compound, in the experiment on Fibroblasts [2], the MMP-1 score turned out to be 0.

In the experiment on Fibroblasts [1], `CCN(CC)CCNc1ccc(CO)c2sc3ccccc3c(=O)c12` [Hycanthone] came in with a PAI-1 score of 1. In addition, in the experiment with Fibroblasts [2], the MMP-1 score amounted to 0.

`O=c1cc(-c2ccc(O)c(O)c2)oc2cc(O)cc(O)c12` [Luteolin]: in the experiment with Fibroblasts [1], the PAI-1 score was determined as 1. The MMP-1 score in the experiment with Fibroblasts [2] was 0.

With `COC(=O)Nc1nc2ccc(SC(C)C)cc2[nH]1` [Methiazole], in the experiment with Fibroblasts [1], the PAI-1 score is listed as 1. Moreover, the MMP-1 score in the experiment on Fibroblasts [2] was 0.

As for `C[C@]12C=CC(=O)C=C1CC[C@@H]1[C@@H]2[C@@H](O)C[C@@]2(C)[C@H]1CC[C@]2(O)C(=O)CO` [Prednisolone], in the experiment on Fibroblasts [1], the PAI-1 score turned out to be 0 and the “inhibit PAI-1 in the HDFT system” value was “none of these inhibit PAI-1”. In addition, the MMP-1 score with Fibroblasts [2] is listed as 0.

For the compound `Cc1c(Cl)cccc1Nc1ccccc1C(=O)O` [Tolfenamic Acid], the PAI-1 score with Fibroblasts [1] turned out to be 1. In the experiment on Fibroblasts [2], the MMP-1 score turned out to be 1.

In the experiment with Fibroblasts [1], `COc1cc(-c2ccc(=O)[nH]n2)ccc1OC(F)F` [Zardaverine] gave a PAI-1 score of 1. Further, in the experiment with Fibroblasts [2], the MMP-1 score came out at 0.

(R)-(−)-Apomorphine had a PAI-1 score with Fibroblasts [1] of 1. For the same compound, the MMP-1 score in the experiment with Fibroblasts [2] is 0.

On to Antimycin A, for which, in the experiment with Fibroblasts [1], the PAI-1 score is on record as 1. Further, the MMP-1 score in the experiment with Fibroblasts [2] stood at 0.
